{"source": "paper PMC6910946", "about": "“Multiple roles of Bet v 1 ligands in allergen stabilization and modulation of endosomal protease activity” (Allergy, 2019)", "key": {"[1]": {"biological_target": "T1, papain (Carica papaya, UniProt P00784)", "T1 construct": "purchased Merck", "T1 sequence (P00784 134-345)": "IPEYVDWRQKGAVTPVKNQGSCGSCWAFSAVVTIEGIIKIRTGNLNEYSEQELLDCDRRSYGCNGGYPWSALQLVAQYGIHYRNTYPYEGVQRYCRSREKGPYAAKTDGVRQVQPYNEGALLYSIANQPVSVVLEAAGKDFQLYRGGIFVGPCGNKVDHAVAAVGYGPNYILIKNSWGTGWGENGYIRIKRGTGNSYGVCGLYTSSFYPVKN", "test": "Enzymatic activity assay, fluorogenic substrate Z-FR-AMC", "assay_type": "biochemical", "settings": "PPE1 5 µmol/L, 15 min (Figure 4A)", "protocol": "(§1) To evaluate the influence of Bet_v_1 ligands on cathepsin S and legumain activities, 10 nmol/L of protease was incubated with 100 µmol/L of ligand (unless otherwise stated) and 50 µmol/L of fluorogenic substrate in digestion buffer (0.1 mol/L sodium acetate pH 5.0, 0.1 mol/L sodium chloride, 5 mmol/L EDTA, and 2 mmol/L DTT), as described in the Appendix [Link], [Link]. The effect of birch pollen extract (BPE) (20‐200 µg/mL) on the cathepsin S and legumain activities was assessed in parallel. The inhibitory effect of PPE1 was assessed by replacing DTT with 0.5 mmol/L TCEP. Activities of recombinant rat cathepsin B (provided by Dr Lukas Mach) and papain (Merck) at 10 nmol/L were assayed using Z‐FR‐AMC (Bachem) as a fluorogenic substrate."}, "[2]": {"biological_target": "T2, recombinant rat cathepsin B (Rattus norvegicus, UniProt P00787)", "T2 construct": "gift of Dr Lukas Mach", "T2 sequence (P00787 80-339)": "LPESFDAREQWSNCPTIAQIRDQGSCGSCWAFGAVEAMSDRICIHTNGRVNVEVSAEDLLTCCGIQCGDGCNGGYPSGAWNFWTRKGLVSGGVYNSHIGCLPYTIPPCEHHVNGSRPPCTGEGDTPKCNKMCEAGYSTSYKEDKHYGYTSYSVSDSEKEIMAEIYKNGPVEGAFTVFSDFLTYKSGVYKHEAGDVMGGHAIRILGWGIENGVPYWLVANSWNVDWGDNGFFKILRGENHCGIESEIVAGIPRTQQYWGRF", "test": "Enzymatic activity assay, fluorogenic substrate Z-FR-AMC", "assay_type": "biochemical", "settings": "PPE1 5 µmol/L, 15 min (Figure 4A)", "protocol": "as §1"}, "[3]": {"biological_target": "T3, legumain (Homo sapiens, UniProt Q99538)", "T3 construct": "made in house", "T3 sequence (Q99538 18-433)": "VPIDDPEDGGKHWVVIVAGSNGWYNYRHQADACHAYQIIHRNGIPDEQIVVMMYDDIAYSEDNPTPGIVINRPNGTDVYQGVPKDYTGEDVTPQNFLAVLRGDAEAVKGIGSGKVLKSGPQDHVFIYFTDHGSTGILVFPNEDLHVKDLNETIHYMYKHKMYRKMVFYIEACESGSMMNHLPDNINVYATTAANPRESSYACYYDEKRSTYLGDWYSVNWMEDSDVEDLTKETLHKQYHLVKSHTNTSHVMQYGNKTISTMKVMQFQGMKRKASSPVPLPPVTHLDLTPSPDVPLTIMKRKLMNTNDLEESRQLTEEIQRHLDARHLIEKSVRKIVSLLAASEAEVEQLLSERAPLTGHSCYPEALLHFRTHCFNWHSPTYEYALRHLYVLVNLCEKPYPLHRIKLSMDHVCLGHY", "test": "Enzymatic activity assay, fluorogenic substrate Z-AAN-AMC", "assay_type": "biochemical", "settings": "PPE1 5 µmol/L (Figure 4D)", "protocol": "as §1\nFor the detection of cathepsin or legumain activities in the microsomal fraction, 8 µg of microsomal extract was incubated with 50 µM fluorogenic substrate with or without inhibitor in assay buffer (100 mM citrate pH 4.8 and 2 mM DTT). The enzymatic reactions were carried out in a 50 µL reaction volume in a 96-half-well black flat bottom assay plate (Corning Inc., Corning, NY, USA) at 37°C. The fluorescence signal was recorded using a Tecan Infinite-200 plate reader (Tecan, Männedorf, Switzerland) at an excitation wavelength of 380 nm and emission wavelength of 460 nm for 15 min of continuous measurement with a 30-s interval reading. […]"}, "[4]": {"biological_target": "T4, cathepsin S (Homo sapiens, UniProt P25774)", "T4 construct": "made in house", "T4 sequence (P25774 115-331)": "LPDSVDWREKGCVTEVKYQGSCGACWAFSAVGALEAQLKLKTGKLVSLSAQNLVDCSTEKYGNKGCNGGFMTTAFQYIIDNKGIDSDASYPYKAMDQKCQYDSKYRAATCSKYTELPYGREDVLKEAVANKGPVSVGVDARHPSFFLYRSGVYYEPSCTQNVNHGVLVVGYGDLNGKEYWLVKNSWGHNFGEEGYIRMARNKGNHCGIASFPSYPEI", "test": "Enzymatic activity assay, fluorogenic substrate Z-VVR-AMC", "assay_type": "biochemical", "protocol": "as §1\nFor the detection of cathepsin or legumain activities in the microsomal fraction, 8 µg of microsomal extract was incubated with 50 µM fluorogenic substrate with or without inhibitor in assay buffer (100 mM citrate pH 4.8 and 2 mM DTT). The enzymatic reactions were carried out in a 50 µL reaction volume in a 96-half-well black flat bottom assay plate (Corning Inc., Corning, NY, USA) at 37°C. The fluorescence signal was recorded using a Tecan Infinite-200 plate reader (Tecan, Männedorf, Switzerland) at an excitation wavelength of 380 nm and emission wavelength of 460 nm for 15 min of continuous measurement with a 30-s interval reading. The fluorogenic substrates used for cathepsin S and legumain were Z-VVR-AMC and Z-AAN-AMC (Bachem, Bubendorf, Switzerland), respectively. The inhibitors used for cathepsin S and legumain were Z-FL-COCHO (Sigma-Aldrich, CA, USA) and Ac-YVAD-CMK (Bachem), respectively^11."}, "[5]": {"biological_target": "T5, Bet_v_1 (Betula pendula, UniProt P15494)", "T5 construct": "made in house", "T5 sequence (P15494 1-160)": "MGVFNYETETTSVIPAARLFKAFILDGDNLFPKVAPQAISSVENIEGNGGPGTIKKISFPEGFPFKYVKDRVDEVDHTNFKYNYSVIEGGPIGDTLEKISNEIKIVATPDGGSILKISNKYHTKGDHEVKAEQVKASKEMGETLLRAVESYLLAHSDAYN", "test": "NMR spectroscopy (1H-15N HSQC) binding confirmation", "from_the_text": "Surface acoustic wave (SAW) technology and NMR spectroscopy were used to observe the interaction of Bet_v_1 with the selected compounds, including determination of the dissociation constant (K d). The influence of ligand binding on the secondary structure elements and the thermal stability of Bet_v_1 was monitored using circular dichroism (CD, JASCO J‐815 spectropolarimeter, Jasco) and Fourier transform infrared (FTIR) spectroscopy (Tensor II FTIR system, Bruker Optics Inc). A detailed description of these methods is available (Appendix [Link], [Link]).\nTo validate the interactions determined by SAW, we used NMR spectroscopy to test the specific binding of PPE1, LTA, LPS, and Kdo2 to Bet_v_1 (Table 1, Figure S2). […] The commercially available PPA1 was used as a substitute for PPE1 to identify the phytoprostane binding site(s).\nThe NMR data were acquired with either a 600 or 800 MHz Agilent DD2 spectrometer with a cryogenically cooled probe using the pulse sequence gNhsqc. Bet v 1 assignments were taken from.^2 The experiments were performed under the following conditions: LTA: 45 µM Bet v 1 and 300 µM LTA in PBS, 10% ^2H2O, 60 µM DSS; PPE1: 25 µM Bet v 1 and 2 µM PPE1 in PBS, 5% ^2H-(d6) DMSO, 10% ^2H2O, 60 µM DSS; PPA1: 100 µM Bet v 1 and 302 µM PPA1 (Cayman Chemical, MI, USA) in PBS, 8.7% ^2H-(d6) DMSO, 10% ^2H2O, 60 µM DSS; LPS: 100 µM Bet v 1 and 400 µM LPS in PBS pH 7.4, 10% ^2H2O, 60 µM DSS. Kdo2: 100 µM Bet v 1 and 422 µM Kdo2 in PBS pH 7.0, 10% ^2H2O, 8.6% ^2H-(d6) DMSO, 60 µM DSS."}, "[6]": {"test_system": "LPS‐stimulated human DCs", "set-up": "method as in PMID 19454659, PMID 17451798", "settings": "cited from earlier work"}}}
{"smiles": "CCC1C(=O)CC(O)C1/C=C/C(O)CCCCCCCC(=O)O", "note": "(stereo not drawn) [PPE1, E1 phytoprostanes]", "values": [{"measurement": "papain fluorogenic activity", "setting": "[1]", "result": "inhibits"}, {"measurement": "rat cathepsin B fluorogenic activity", "setting": "[2]", "result": "inhibits"}, {"measurement": "legumain activity in the presence of DTT and TCEP", "setting": "[3]", "result": "no inhibitory effect"}, {"measurement": "cathepsin S fluorogenic activity", "setting": "[4]; 10 nmol/L protease, 100 µmol/L ligand, 50 µmol/L substrate, pH 5.0, 2 mmol/L DTT (Figure 3A)", "result": "specifically inhibited"}, {"measurement": "cathepsin S fluorogenic activity", "setting": "[4]; PPE1 5 µmol/L, 15 min (Figure 4A)", "result": "inhibits"}, {"measurement": "cathepsin S activity in the presence of TCEP", "setting": "[4]; PPE1 5 µmol/L, 0.5 mmol/L TCEP instead of DTT (Figure 4D)", "result": "completely abolished"}, {"measurement": "NMR (binding confirmation, K d)", "setting": "[5]; 15N-labeled Bet v 1, direct measurement of Kd prevented by intermediate exchange", "result": "low to sub‐µmol/L"}, {"measurement": "specific binding to Bet v 1 (1H-15N HSQC spectra)", "setting": "[5]; absence vs presence of compound", "result": "specifically binds"}, {"measurement": "production of IL‐12p70", "setting": "[6]", "result": "inhibits the production of IL‐12p70"}]}
